For twelve compounds, IC50 results are on record in patent publication US10143746B2, “Immunomodulators” (BRISTOL-MYERS SQUIBB COMPANY, priority 2016, dated 2018).

Structures are written as SMILES. Where a SMILES comes first, the peptide text is derived from it. Bridges are numbered along the chain shown (N, C = ends). [ ]: non-standard residue; d: D form. Hyp = O=C(O)[C@@H]1C[C@@H](O)CN1; NMeNle = CCCC[C@H](NC)C(=O)O; NMeA = CN[C@@H](C)C(=O)O; Orn = NCCC[C@H](N)C(=O)O; Dab = NCC[C@H](N)C(=O)O; Sar = CNCC(=O)O

PD-1-Ig binding to PD-L1-TVMV-His (PD-L1-His), sequence (Q9NZQ7 other isoform, or with tags, fused parts or gaps): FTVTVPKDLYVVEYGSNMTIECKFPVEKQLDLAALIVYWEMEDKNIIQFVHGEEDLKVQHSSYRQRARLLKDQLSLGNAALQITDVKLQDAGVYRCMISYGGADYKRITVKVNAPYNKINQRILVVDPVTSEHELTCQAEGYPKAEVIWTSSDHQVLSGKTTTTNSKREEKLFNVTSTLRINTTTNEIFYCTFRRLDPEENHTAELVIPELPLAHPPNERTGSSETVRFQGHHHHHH

One assay concerns the target PD-1-Ig binding to PD-L1-TVMV-His (PD-L1-His) (Homo sapiens (Human), UniProt Q9NZQ7). Put plainly: PD-1/PD-L1 Homogenous Time-Resolved Fluorescence (HTRF) binding assay (PD-1-Ig/PD-L1-His). To be noted: PD-1-Ig (20 nM)/PD-L1-His (10 nM); numeric values. The text has this:
Methods for Testing the Ability of Macrocyclic Compounds to Compete for the Binding of PD-1 to PD-L1 Using Homogenous Time-Resolved Fluorescence (HTRF) Binding Assays
The ability of the macrocyclic compounds of the present disclosure to bind to PD-L1 was investigated using a PD-1/PD-L1 Homogenous Time-Resolved Fluorescence (HTRF) binding assay.
Homogenous Time-Resolved Fluorescence (HTRF) Assays of Binding of Soluble PD-1 to Soluble PD-L1. Soluble PD-1 and soluble PD-L1 refers to proteins with carboxyl-end truncations that remove the transmembrane-spanning regions and are fused to heterologous sequences, specifically the Fc portion of the human immunoglobulin G sequence (Ig) or the hexahistidine epitope tag (His). All binding studies were performed in an HTRF assay buffer consisting of dPBS supplemented with 0.1% (w/v) bovine serum albumin and 0.05% (v/v) Tween-20. For the PD-1-Ig/PD-L1-His binding assay, inhibitors were pre-incubated with PD-L1-His (10 nM final) for 15 m in 4 μl of assay buffer, followed by addition of PD-1-Ig (20 nM final) in 1 μl of assay buffer and further incubation for 15 m. PD-L1 fusion proteins from either human, cynomologous macaques, mouse, or other species were used. HTRF detection was achieved using europium crypate-labeled anti-Ig monoclonal antibody (1 nM final) and allophycocyanin (APC) labeled anti-His monoclonal antibody (20 nM final). Antibodies were diluted in HTRF detection buffer and 5 μl was dispensed on top of binding reaction. […] Additional binding assays were established between PD-1-Ig/PD-L2-His (20 and 5 nM, respectively), CD80-His/PD-L1-Ig (100 and 10 nM, respectively) and CD80-His/CTLA4-Ig (10 and 5 nM, respectively).
Recombinant Proteins. […] Human PD-L2-His (Sino Biologicals), CD80-His (Sino Biologicals), CTLA4-Ig (RnD Systems) were all obtained through commercial sources.
For orientation: Time-resolved FRET reads energy transfer from a long-lived donor to a nearby acceptor.
Broadly, the IC50 is the concentration at which inhibition is half-maximal. Lower therefore signals inhibition by little substance. For the compound `CCCC[C@H]1C(=O)N(C)[C@@H](CCCC)C(=O)N[C@@H](C)C(=O)N[C@H](C(=O)NCC(N)=O)CSCC(=O)N[C@@H](Cc2ccc(O)cc2)C(=O)N(C)[C@@H](C)C(=O)N[C@H]2CCCNC(=O)CC[C@@H](NC(=O)[C@H](Cc3cn(C(=O)C(F)(F)F)cn3)NC(=O)[C@@H]3CCCC3C2=O)C(=O)N2C[C@H](O)C[C@H]2C(=O)N[C@@H](Cc2c[nH]c3ccccc23)C(=O)N[C@@H](CO)C(=O)N[C@@H](Cc2c[nH]c3ccccc23)C(=O)N1C` (stereo partly drawn) [Example 1403], the IC50 stood at 7 nM. `CCCC[C@H]1C(=O)N(C)[C@@H](CCCC)C(=O)N[C@H]2CCC(=O)NCCCC[C@H](NC(=O)[C@H](Cc3c[nH]c4ccccc34)NC(=O)[C@@H]3C[C@@H](O)CN3C(=O)[C@H](CCC(N)=O)NC(=O)[C@H](Cc3c[nH]cn3)NC(=O)[C@@H]3CCCN3C(=O)[C@H](CC(N)=O)NC(=O)[C@@H](C)NC(=O)[C@H](Cc3ccc(O)cc3)NC(=O)CSC[C@@H](C(=O)NCC(N)=O)NC2=O)C(=O)N[C@@H](Cc2c[nH]c3ccccc23)C(=O)N1C` [Example 5007] ({CH2CO}-Y[dA]NPHQ[Hyp]WKW[NMeNle][NMeNle]ECG-NH2; lactam 9-13; thioether N-14) came in with an IC50 of 14 nM.

The same assay, now with this note: PD-1-Ig (20 nM)/PD-L1-His (10 nM); range classes.
Turning to `CCCC[C@H]1C(=O)N(C)[C@@H](CCCC)C(=O)N[C@H]2CCC(=O)NCCC[C@H](NC(=O)[C@H](Cc3c[nH]c4ccccc34)NC(=O)CN(C)C(=O)[C@H](CC(C)C)NC(=O)[C@H](Cc3c[nH]cn3)NC(=O)[C@@H]3CCCN3C(=O)[C@H](CC(N)=O)NC(=O)[C@H](C)N(C)C(=O)[C@H](Cc3ccccc3)NC(=O)CSC[C@@H](C(=O)NCC(N)=O)NC2=O)C(=O)N[C@@H](Cc2c[nH]c3ccccc23)C(=O)N1C` [Example 5003] ({CH2CO}-F[NMeA]NPHL[Sar]W[Orn]W[NMeNle][NMeNle]ECG-NH2; lactam 9-13; thioether N-14), the IC50 was 10 to 99 nM.

`CCCC[C@H]1C(=O)N(C)[C@@H](CCCC)C(=O)N[C@H]2CCC(=O)NCCCC[C@H](NC(=O)[C@H](Cc3c[nH]c4ccccc34)NC(=O)[C@@H]3C[C@@H](O)CN3C(=O)[C@@H]3CCCCNC(=O)C[C@H](NC(=O)[C@H](C)N(C)C(=O)[C@H](Cc4ccc(O)cc4)NC(=O)CSC[C@@H](C(=O)NCC(N)=O)NC2=O)C(=O)N2CCC[C@H]2C(=O)N[C@@H](Cc2c[nH]cn2)C(=O)N3)C(=O)N[C@@H](Cc2c[nH]c3ccccc23)C(=O)N1C` [Example 5005] ({CH2CO}-Y[NMeA]DPHK[Hyp]WKW[NMeNle][NMeNle]ECG-NH2; lactam 3-6, 9-13; thioether N-14): the IC50 lay in the range of 10 to 99 nM. Consider `CCCC[C@H]1C(=O)N(C)[C@@H](CCCC)C(=O)N[C@@H](CC(C)C)C(=O)N[C@H](C(=O)NCC(N)=O)CSCC(=O)N[C@@H](Cc2ccc(O)cc2)C(=O)N(C)[C@@H](C)C(=O)N[C@H]2CCC(=O)NC[C@H](NC(=O)[C@@H]3CCCN3C2=O)C(=O)N[C@@H](CC(C)C)C(=O)N2CCC[C@H]2C(=O)N[C@@H](Cc2c[nH]c3ccccc23)C(=O)N[C@@H](CO)C(=O)N[C@@H](Cc2c[nH]c3ccccc23)C(=O)N1C` [Example 10500], for which the IC50 was in the range of 100 to 1000 nM. For the compound `CCCC[C@H]1C(=O)N(C)[C@@H](CCCC)C(=O)N[C@@H](C)C(=O)N[C@H](C(=O)NCC(N)=O)CSCC(=O)N[C@@H](Cc2ccc(O)cc2)C(=O)N(C)[C@@H](C)C(=O)N[C@H]2CCC(=O)NCCC[C@H](NC(=O)[C@H](Cc3cnc[nH]3)NC(=O)[C@@H]3CCCN3C2=O)C(=O)N2C[C@H](O)C[C@H]2C(=O)N[C@@H](Cc2c[nH]c3ccccc23)C(=O)N[C@@H](CO)C(=O)N[C@@H](Cc2c[nH]c3ccccc23)C(=O)N1C` [Example 1505] ({CH2CO}-Y[NMeA]EPH[Orn][Hyp]WSW[NMeNle][NMeNle]ACG-NH2; lactam 3-6; thioether N-14), the IC50 lay in the range of 10 to 99 nM. On the same count and under the same terms, the figure for `CCCC[C@H]1C(=O)N(C)[C@@H](CCCC)C(=O)N[C@@H](C)C(=O)N[C@H](C(=O)NCC(N)=O)CSCC(=O)N[C@@H](Cc2ccc(O)cc2)C(=O)N(C)[C@@H](C)C(=O)N[C@H]2CCC(=O)NCC[C@H](NC(=O)[C@H](Cc3cnc[nH]3)NC(=O)[C@@H]3CCCN3C2=O)C(=O)N2C[C@H](O)C[C@H]2C(=O)N[C@@H](Cc2c[nH]c3ccccc23)C(=O)N[C@@H](CO)C(=O)N[C@@H](Cc2c[nH]c3ccccc23)C(=O)N1C` [Example 1501] ({CH2CO}-Y[NMeA]EPH[Dab][Hyp]WSW[NMeNle][NMeNle]ACG-NH2; lactam 3-6; thioether N-14) is 10 to 99 nM; for `CCCC[C@H]1C(=O)N(C)[C@@H](CCCC)C(=O)N[C@H]2CCCC[C@H](NC(=O)[C@H](Cc3c[nH]c4ccccc34)NC(=O)[C@@H]3CCCN3C(=O)[C@H](CC(C)C)NC(=O)[C@H](Cc3cnc[nH]3)NC(=O)[C@@H]3CCCN3C(=O)[C@H](CC(N)=O)NC(=O)[C@H](C)N(C)C(=O)[C@H](Cc3ccc(O)cc3)NC(=O)CSC[C@@H](C(=O)NCC(N)=O)NC2=O)C(=O)N[C@@H](Cc2c[nH]c3ccccc23)C(=O)N1C` [Example 7156] it is 10 to 99 nM; for `CCCC[C@H]1C(=O)N(C)[C@@H](CCCC)C(=O)N[C@@H](C)C(=O)N[C@H](C(=O)NCC(N)=O)CSCC(=O)N[C@@H](Cc2ccc(O)cc2)C(=O)N(C)[C@@H](C)C(=O)N[C@H]2CCCNC(=O)CC[C@H](NC(=O)[C@H](Cc3cnc[nH]3)NC(=O)[C@@H]3CCCN3C2=O)C(=O)N2C[C@H](O)C[C@H]2C(=O)N[C@@H](Cc2c[nH]c3ccccc23)C(=O)N[C@@H](CO)C(=O)N[C@@H](Cc2c[nH]c3ccccc23)C(=O)N1C` [Example 1506] ({CH2CO}-Y[NMeA][Orn]PHE[Hyp]WSW[NMeNle][NMeNle]ACG-NH2; lactam 3-6; thioether N-14) it is 10 to 99 nM. The same measure, in the same setting: the figure for `CCCC[C@H]1C(=O)N(C)[C@@H](CCCC)C(=O)N[C@H]2CCCCNC(=O)CC[C@H](NC(=O)[C@H](Cc3c[nH]c4ccccc34)NC(=O)CN(C)C(=O)[C@H](CC(C)C)NC(=O)[C@H](Cc3c[nH]cn3)NC(=O)[C@@H]3CCCN3C(=O)[C@H](CC(N)=O)NC(=O)[C@H](C)N(C)C(=O)[C@H](Cc3ccccc3)NC(=O)CSC[C@@H](C(=O)NCC(N)=O)NC2=O)C(=O)N[C@@H](Cc2c[nH]c3ccccc23)C(=O)N1C` [Example 5002] ({CH2CO}-F[NMeA]NPHL[Sar]WEW[NMeNle][NMeNle]KCG-NH2; lactam 9-13; thioether N-14) is 10 to 99 nM; for `CCCC[C@H]1C(=O)N(C)[C@@H](CCCC)C(=O)N[C@@H](C)C(=O)N[C@H](C(=O)NCC(N)=O)CSCC(=O)N[C@@H](Cc2ccc(O)cc2)C(=O)N(C)[C@@H](C)C(=O)N[C@H]2CCNC(=O)CC[C@H](NC(=O)[C@H](Cc3cnc[nH]3)NC(=O)[C@@H]3CCCN3C2=O)C(=O)N2C[C@H](O)C[C@H]2C(=O)N[C@@H](Cc2c[nH]c3ccccc23)C(=O)N[C@@H](CO)C(=O)N[C@@H](Cc2c[nH]c3ccccc23)C(=O)N1C` [Example 1504] ({CH2CO}-Y[NMeA][Dab]PHE[Hyp]WSW[NMeNle][NMeNle]ACG-NH2; lactam 3-6; thioether N-14) it is 10 to 99 nM; for `CCCC[C@H]1C(=O)N(C)[C@@H](CCCC)C(=O)N[C@H]2CCC(=O)NCCCC[C@H](NC(=O)[C@H](Cc3c[nH]c4ccccc34)NC(=O)CN(C)C(=O)[C@H](CC(C)C)NC(=O)[C@H](Cc3c[nH]cn3)NC(=O)[C@@H]3CCCN3C(=O)[C@H](CC(N)=O)NC(=O)[C@H](C)N(C)C(=O)[C@H](Cc3ccccc3)NC(=O)CSC[C@@H](C(=O)NCC(N)=O)NC2=O)C(=O)N[C@@H](Cc2c[nH]c3ccccc23)C(=O)N1C` [Example 5001] ({CH2CO}-F[NMeA]NPHL[Sar]WKW[NMeNle][NMeNle]ECG-NH2; lactam 9-13; thioether N-14) it is 3 to 9.9 nM.
